Source: patent publication US20250346584A1, “NOVEL KAPPA OPIOID LIGANDS” (The Scripps Research Institute, priority 2012, published 2025)

Target: kappa opioid receptor (OPRK1) (Homo sapiens (Human), UniProt P41145)
Test: OPRK1 antagonist assay (b-arrestin-2-TEV / b-lactamase reporter cell line, EC80 U-50488 challenge)
Type: cell-based
Settings: read-out: IC50 nM (% inhib if other than 50%); antagonist mode vs EC80 U-50488; NA = not active at concentrations up to 10 μM

kappa opioid receptor (OPRK1), sequence (P41145 whole entry): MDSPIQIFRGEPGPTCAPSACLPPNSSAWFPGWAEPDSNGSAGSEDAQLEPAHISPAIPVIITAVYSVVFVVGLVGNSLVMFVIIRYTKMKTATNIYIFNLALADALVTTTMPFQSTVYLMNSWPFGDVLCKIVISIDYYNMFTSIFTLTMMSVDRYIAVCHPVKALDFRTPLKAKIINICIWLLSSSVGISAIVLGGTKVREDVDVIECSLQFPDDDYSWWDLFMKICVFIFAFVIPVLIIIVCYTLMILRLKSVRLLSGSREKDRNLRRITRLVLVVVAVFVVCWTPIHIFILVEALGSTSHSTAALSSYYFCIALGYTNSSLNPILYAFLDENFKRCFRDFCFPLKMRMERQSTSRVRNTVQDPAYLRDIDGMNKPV

| SMILES | IC50 [nM] |
| --- | --- |
| COC1CN(c2nc3ccc(C)cc3cc2-c2nc(C)no2)CCC1NCC(C)C (stereo not shown) [compound 375] | 12 |
| COC1CN(c2nc3ccc(C)cc3cc2-c2nc(C3CC3)no2)CCC1NCC(C)C (stereo not shown) [compound 376] | 14 |
| COC1CN(c2nc3ccc(C)cc3cc2-c2noc(C)n2)CCC1NCC(C)C (stereo not shown) [compound 377] | 69 |
| COC1CN(c2nc(C)c(C)cc2-c2nc(C)no2)CCC1NCC(C)C (stereo not shown) [compound 378] | 256 |
| COC1CN(c2ncc(C)cc2-c2nccc(C)n2)CCC1NC1CCCCC1 (stereo not shown) [compound 384] | 16700 |
| COC1CN(c2nc(C)c(C)nc2-c2nc(C)no2)CCC1NC1CCCCC1 (stereo not shown) [compound 390] | 1920 |
| COC1CN(c2ncc(C)cc2-c2cn(C)nn2)CCC1NC1CCCCC1 (stereo not shown) [compound 392] | 2960 |
| Cc1ccc2nc(N3CCC(NCC(C)(C)O)CC3)c(-c3nc(C)no3)cc2c1 [compound 402] | 16 |
| CO[C@@H]1CN(c2nnc(C)cc2C(=O)OC(C)C)CC[C@@H]1NC1CCCCC1 [compound 404] | 63 |
| COC1CN(c2nnc(C)cc2C(=O)OC(C)C)CCC1NCC(C)C (stereo not shown) [compound 408] | 57 |
| CO[C@H]1CN(c2nnc(C)cc2C(=O)OC(C)C)CC[C@H]1NC1CCCCC1 [compound 411] | 10 |
| Cc1ccc2nc(N3CCC(NC[C@@H](C)O)CC3)c(-c3nc(C)no3)cc2c1 [compound 421] | 48 |
| Cc1ccc2nc(N3CCC(NC[C@H](C)O)CC3)c(-c3nc(C)no3)cc2c1 [compound 422] | 106 |
| COC1CN(c2nc(CO)ccc2-c2nc(C)no2)CCC1NC1CCCCC1 (stereo not shown) [compound 425] | 60 |
| COC1CN(c2nc3ccccc3cc2-c2cnc(C)cn2)CCC1NC1CCCCC1 (stereo not shown) [compound 465] | 18 |
| CO[C@H]1CN(c2nc3ccccc3cc2-c2cnc(C)cn2)CC[C@H]1NC1CCCCC1 [compound 470] | 40 |
| CO[C@@H]1CN(c2nc3ccccc3cc2-c2cnc(C)cn2)CC[C@@H]1NC1CCCCC1 [compound 471] | 170 |
| CO[C@H]1CN(c2ncc(C)cc2-c2cnc(C)cn2)CC[C@H]1NC1CCCCC1 [compound 472] | 105 |
| Cc1cnc(N2CCC(NC3CCOCC3)CC2)c(-c2cnc(C)cn2)c1 [compound 473] | 3210 |
| CC(=O)c1cc2cc(C)ccc2nc1N1CCC(NC2CCOCC2)CC1 [compound 478] | 900 |

| SMILES | IC50 [nM] |
| --- | --- |
| CO[C@H]1CN(c2nc3ccc(C)cc3cc2C(C)=O)CC[C@H]1NC1CCCCC1 [compound 483] | 315 |
| CO[C@@H]1CN(c2nc3ccc(C)cc3cc2C(C)=O)CC[C@@H]1NC1CCCCC1 [compound 484] | 347 |
| CO[C@H]1CN(c2nc3c(C)c(F)ccc3cc2-c2nc(C)no2)CC[C@H]1NC1CCCCC1 [compound 487] | 15 |
| CO[C@@H]1CN(c2nc3c(C)c(F)ccc3cc2-c2nc(C)no2)CC[C@@H]1NC1CCCCC1 [compound 492] | 74 |
| Cc1noc(-c2cc3ccc(F)c(C)c3nc2N2CCC(NCC(C)C)CC2)n1 [compound 494] | 64 |
| CO[C@H]1CN(c2nc3ccc(C)cc3cc2-c2ccc(C)o2)CC[C@H]1NC1CCCCC1 [compound 497] | 48 |
| Cc1cnc(N2CCC(NC3CCCCC3)CC2)c(-c2ccc(C)o2)c1 [compound 499] | 116 |
| CO[C@H]1CN(c2nc3ccc(C)cc3cc2-c2nc(C)no2)CC[C@H]1NC1CCOCC1 [compound 500] | 423 |
| Cc1ccc2nc(N3CCC(NC4CCOCC4)CC3)c(-c3ccc(C)o3)cc2c1 [compound 501] | 331 |
| Cc1cc(-c2nc(C3CC3)no2)c(N2CCC(NCC(C)C)CC2)nn1 [compound 509] | 30 |
| Cc1ccc2nc(N3CCC(N[C@H]4CCCC[C@@H]4O)CC3)c(-c3ccncn3)cc2c1 [compound 516] | 564 |
| Cc1cnc(N2CCC(NC3CCCCC3)CC2)c(-c2ccncn2)c1 [compound 517] | 1140 |
| Cc1ccc2nc(N3CCC(NC4CCOCC4)CC3)c(-c3nc(C)no3)nc2c1 [compound 518] | 410 |
| CO[C@H]1CN(c2nc3ccc(C)cc3nc2-c2nc(C)no2)CC[C@H]1NC1CCCCC1 [compound 519] | 95 |
| CO[C@H]1CN(c2nc3cccc(F)c3cc2-c2nc(C)no2)CC[C@H]1NC1CCCCC1 [compound 520] | 19 |
| CO[C@H]1CN(c2nc3ccc(C)cc3cc2-c2nc(C)no2)CC[C@H]1NC1CCC(F)(F)CC1 [compound 521] | 278 |
| CO[C@@H]1CN(c2nc3ccc(C)cc3cc2-c2nc(C)no2)CC[C@@H]1NC1CCOCC1 [compound 522] | 67 |
| CCc1ccc2nc(N3CCC(N[C@H](C)CC)CC3)c(-c3nc(C)no3)cc2c1 [compound 525] | 17 |
| Cc1noc(-c2cc3c(F)cccc3nc2N2CCC(NCC(C)C)CC2)n1 [compound 526] | 49 |
| Cc1noc(-c2cc3ccc(F)cc3nc2N2CCC(NCC(C)C)CC2)n1 [compound 527] | 20 |

The remaining lines, values ahead:

| IC50 [nM] | SMILES |
| --- | --- |
| 83 | CO[C@@H]1CN(c2nc3ccc(C)cc3cc2-c2noc(C)n2)CC[C@@H]1NC1CCCCC1 [compound 382] |
| 7680 | Cc1cnc(-c2cc(C)cnc2N2CCC(NC3CCCCC3)CC2)nc1 [compound 406] |
| 43 | Cc1ccc2nc(N3CCC(NCC4CC4)CC3)c(-c3noc(C)n3)cc2c1 [compound 434] |
| 6 | Cc1ccc2nc(N3CCC(NC4CCC(F)(F)CC4)CC3)c(-c3nc(C)no3)cc2c1 [compound 435] |
| 26 | Cc1ccc2nc(N3CCC(NC4CCC(F)(F)CC4)CC3)c(-c3noc(C)n3)cc2c1 [compound 436] |
| 17 | Cc1ccc2nc(N3CCC(NC4CCCC[C@@H]4O)CC3)c(-c3noc(C)n3)cc2c1 (stereo partly shown) [compound 437] |
| 70 | Cc1ccc2nc(N3CCC(NC4CCC[C@@H]4O)CC3)c(-c3noc(C)n3)cc2c1 (stereo partly shown) [compound 440] |
| 11 | Cc1ccc2nc(N3CCC(NC4CCCCC4O)CC3)c(-c3noc(C)n3)cc2c1 (stereo not shown) [compound 450] |
| 85 | CCCC(C)NC1CCN(c2nc3ccc(C)cc3cc2-c2noc(C)n2)CC1 (stereo not shown) [compound 453] |
| 52 | Cc1ccc2nc(N3CCC(NC4CCCCC4)C3)c(-c3nc(C)no3)cc2c1 (stereo not shown) [compound 461] |
| 24 | Cc1cnc(-c2cc3ccccc3nc2N2CCC(NC3CCCCC3)CC2)cn1 [compound 466] |
| 431 | Cc1nc(-c2cc3cc(F)ccc3nc2N2CCC(NC3CCCCC3)CC2)no1 [compound 467] |
| 175 | Cc1nc(-c2cc3cc(F)ccc3nc2N2CCC(NC3CCCC3)CC2)no1 [compound 468] |
| 440 | Cc1nc(-c2cc3cc(F)ccc3nc2N2CCC(NC3CCOCC3)CC2)no1 [compound 469] |
| 1900 | Cc1nc(-c2cc3cc(F)ccc3nc2N2CCC(N[C@H]3CCC[C@@H]3O)CC2)no1 [compound 474] |
| 101 | Cc1nc(-c2cc3cc(F)ccc3nc2N2CCC(N[C@@H]3CCCC[C@H]3O)CC2)no1 [compound 475] |
| 430 | Cc1noc(-c2cc3cc(F)ccc3nc2N2CCC(NC3CCOCC3)CC2)n1 [compound 476] |
| 42 | Cc1noc(-c2cc3c(F)cccc3nc2N2CCC(NC3CCOCC3)CC2)n1 [compound 477] |
| 211 | CC(=O)c1cc2cc(C)ccc2nc1N1CCC(NC2CCCCC2)CC1 [compound 479] |
| 8 | Cc1nc(-c2cc3ccc(F)cc3nc2N2CCC(NC3CCCCC3)CC2)no1 [compound 480] |
| 10 | Cc1nc(-c2cc3ccc(F)cc3nc2N2CCC(NC3CCCC3)CC2)no1 [compound 481] |

| IC50 [nM] | SMILES |
| --- | --- |
| 75 | Cc1nc(-c2cc3ccc(F)cc3nc2N2CCC(NC3CCOCC3)CC2)no1 [compound 482] |
| 673 | Cc1nc(-c2cc3ccc(F)cc3nc2N2CCC(N[C@H]3CCCC[C@@H]3O)CC2)no1 [compound 485] |
| 1070 | Cc1nc(-c2cc3ccc(F)cc3nc2N2CCC(N[C@H]3CCCOC3)CC2)no1 [compound 486] |
| 19 | Cc1ccc2nc(N3CCC(NC4CCCCC4)CC3)c(-c3ccc(C)o3)cc2c1 [compound 488] |
| 33 | Cc1noc(-c2cc3ccc(F)c(C)c3nc2N2CCC(NC3CCCCC3)CC2)n1 [compound 491] |
| 132 | Cc1noc(-c2cc3ccc(F)c(C)c3nc2N2CCC(NC3CCOCC3)CC2)n1 [compound 493] |
| 13 | Cc1nc(-c2cc3cc(C)c(F)cc3nc2N2CCC(NC3CCCCC3)CC2)no1 [compound 495] |
| 54 | CO[C@H]1CN(c2nc3cc(F)c(C)cc3cc2-c2nc(C)no2)CC[C@H]1NC1CCCCC1 [compound 496] |
| 33 | Cc1noc(-c2cc3cc(C)c(F)cc3nc2N2CCC(NCC(C)C)CC2)n1 [compound 498] |
| 74 | Cc1nc(-c2cc3ccc(F)c(C)c3nc2N2CCC(NC3CCCCC3)CC2)no1 [compound 503] |
| 45 | Cc1nc(-c2cc3ccc(F)c(C)c3nc2N2CCC(NC3CCCC3)CC2)no1 [compound 504] |
| 126 | Cc1nc(-c2cc3ccc(F)c(C)c3nc2N2CCC(NCC(C)C)CC2)no1 [compound 505] |
| 48 | Cc1nc(-c2cc3cc(C)c(F)cc3nc2N2CCC(N[C@H]3CCCC[C@@H]3O)CC2)no1 [compound 506] |
| 43 | Cc1nc(-c2cc3cc(C)c(F)cc3nc2N2CCC(NC3CCOCC3)CC2)no1 [compound 507] |
| 5 | CO[C@H]1CN(c2nc3cc(F)ccc3cc2-c2nc(C)no2)CC[C@H]1NC1CCCCC1 [compound 508] |
| 115 | Cc1nc(-c2cc3ccc(F)c(C)c3nc2N2CCC(N[C@H]3CCCC[C@@H]3O)CC2)no1 [compound 510] |
| 227 | Cc1nc(-c2cc3ccc(F)c(C)c3nc2N2CCC(NC3CCOCC3)CC2)no1 [compound 511] |
| 12 | Cc1nc(-c2cc3cc(C)c(F)cc3nc2N2CCC(NC3CCCC3)CC2)no1 [compound 512] |
| 27 | Cc1nc(-c2cc3cc(C)c(F)cc3nc2N2CCC(NCC(C)C)CC2)no1 [compound 513] |
| 55 | CO[C@@H]1CN(c2nc3cc(F)ccc3cc2-c2nc(C)no2)CC[C@@H]1NC1CCCCC1 [compound 514] |
| 7 | Cc1noc(-c2cc3ccc(F)cc3nc2N2CCC(NC3CCCCC3)CC2)n1 [compound 515] |
